From patent publication US20070161645A1, “Thiazole inhibitors targeting resistant kinase mutations” (TargeGen, Inc., priority 2005, published 2007)
Where a name gives a salt, the structure may show the parent alone. Read-outs that look alike come from different tables or passages of the source.

Legend:
[1] = biological target: T1, Abl kinase (Homo sapiens, UniProt P00519); test: Abl Kinase Assay (KinaseGlo luminescent detection of residual ATP); format: biochemical
T1 construct: purchased Invitrogen
Description: Kinase activity was assessed using luminescent detection (KinaseGlo, Promega) of residual ATP concentration in reaction mixtures containing optimized levels of kinase, substrate, ATP, compound and appropriate buffers. Kinase, substrate and ATP concentrations were determined per the supplier's recommendations. Briefly, this involved running concentration curves to select for optimal signal.
The reaction mixture (50 μl/well) consisted of Abl kinase (Invitrogen, 20 ng/well); Abltide peptide substrate (Upstate, 100 μM) and ATP (500 nM). Each compound was evaluated at a top concentration of 10 μM with 1:3 dilution steps, 10 dilution steps total. Compound was diluted into DMSO and transferred to the reaction plate, resulting in a final DMSO concentration of 2%. This amount of DMSO was determined not to interfere with the enzyme. The reaction was conducted at 37° C. for 60 minutes. The degree of inhibition was assessed using IC50 determinations, which were obtained using GraphPad Prism4.

[2] = biological target: T2, Abl (T315I) (Homo sapiens, UniProt P00519, T315I); test: Abl (T315I) Kinase Assay (KinaseGlo luminescent detection of residual ATP); format: biochemical
T2 construct: purchased Upstate
Description: The assay was performed similarly to the Abl kinase assay. Abl (T3151) (Upstate, 17 ng/well); Abltide substrate (100 μM) and ATP (5 nM) comprised the reaction mixture. Compound was similarly diluted, and the reaction plate was incubated for 60 minutes at 37° C. IC50's were calculated as for the Abl kinase assay using GraphPad Prism4.

[3] = Abl kinase 20 ng/well, Abltide 100 μM, ATP 500 nM, 60 minutes at 37° C., read-out: Abl IC50
[4] = Abl (T315I) 17 ng/well, Abltide 100 μM, ATP 5 nM, 60 minutes at 37° C., read-out: Abl (T315I) IC50

| Structure (SMILES) | IC50 [1] [nM] | IC50 [2] [nM] | IC50 [1, 3] [nM] | IC50 [2, 4] [nM] |
| --- | --- | --- | --- | --- |
| O=S(=O)(c1ccc(Nc2ncc(/C=C/c3ccc(O)cc3)s2)cc1)C1CCNCC1 | 215 | 262 |  |  |
| Cc1nc(Nc2ncc(/C=C/c3ccc(Cl)c4[nH]ccc34)s2)cc(N2CCNCC2)n1 [4-{5-[2-(3-Hydroxy-phenyl)-vinyl]-pyrimidine-2-ylamino}-N-piperdin-4-yl-benzenesulfonamide] |  |  | 70 | 50 |
| CN(CCN1CCCC1)S(=O)(=O)c1cccc(Nc2ncc(/C=C/c3ccc(O)cc3)s2)c1 [Compound II, 3-{5-[2-(4-Hydroxy-phenyl)-vinyl]-thiazol-2-ylaminol}-N-methyl-N-(2-pyrrolidin-1-yl-ethyl)-benzenesulfonamide, Hydrochloride] | 393 | 827 |  |  |
| O=S(=O)(NCCN1CCCC1)c1ccc(Nc2ncc(C=Cc3cc(O)ccc3Cl)s2)cc1 [Compound IV, 4-{5-[2-(2-Chloro-5-hydroxy-phenyl)-vinyl]-thiazol-2-ylamino}-N-(2-pyrrolidin-1-yl-ethyl)-benzenesulfonamide] |  |  | 890 |  |
| O=S(=O)(c1cccc(Nc2ncc(/C=C/c3cccc(O)c3)s2)c1)N1CCNCC1 [Compound VI, 3-(-{2-[3-(Piperazine-1-sulfonyl)-phenylamino]-thiazol-5yl}-vinyl)-phenol] | 129 | 2650 |  |  |
| Cc1nc(Nc2ncc(/C=C\c3cccc(O)c3)s2)cc(N2CCC(O)CC2)n1 [Compound VII, cis-1-(6-{5-[2-(3-Hydroxy-phenyl)-vinyl]-thiazol-2-ylamino}-2-methyl-pyrimidin-4-yl)-piperidin-4-ol] |  |  | 29 | 269 |
| Cc1nc(Nc2ncc(/C=C/c3cccc(O)c3)s2)cc(N2CCC(O)CC2)n1 [Compound VIII, trans-1-(6-{5-[2-(3-Hydroxy-phenyl)-vinyl]-thiazol-2-ylamino}-2-methyl-pyrimidin-4-yl)-piperidin-4-ol] |  |  | 24 | 208 |
| O=S(=O)(c1ccc(Nc2ncc(/C=C/c3cccc(O)c3)s2)cc1)N1CCNCC1 [Compound XI, 3-(-{2-[4-(Piperazine-1-sulfonyl)-phenylamino]-thiazol-5yl}-vinyl)-phenol] |  |  | 137 | 437 |
| Cc1nc(Nc2ncc(/C=C/c3ccc4nc(N)sc4c3)s2)cc(N2CCNCC2)n1 [Compound XIX, 6-[(E)-2-{2-[(2-Methyl-6-piperazin-1-ylpyrimidin-4-yl)amino]-1,3-thiazol-5-yl}vinyl]-1,3-benzothiazol-2-amine] | 16 | 111 |  |  |
| Cc1nc(Nc2ncc(/C=C/c3cccc4[nH]ncc34)s2)cc(N2CCNCC2)n1 [Compound XVI, {5-[2-(1H-Indazol-4-yl)-vinyl]-thiazol-2-yl}-(2-methyl-6-piperazin-1-yl-pyrimidin-4-yl)-amine] |  |  | 20 | 328 |
| Oc1cccc(/C=C/c2cnc(Nc3cc(N4CCNCC4)ncn3)s2)c1 [Compound XVII, 3-{2-[2-(6-Piperazin-1-yl-pyrimidin-4-ylamino)-thiazol-5-yl]-vinyl}-phenol] |  |  | 4.4 | 35 |
| Cc1nc(Nc2ncc(/C=C/c3cccc(O)c3)s2)cc(N2CCCNCC2)n1 [Compound XVIII, 3-{2-[2-(6-[1,4]Diazepan-1-yl-2-methyl-pyrimidin-4-ylamino)-thiazol-5-yl]-vinyl}-phenol] |  |  | 2.7 | 31 |
| Cc1nc(Nc2ncc(/C=C/c3cccc(O)c3)s2)cc(N2CCNCC2)n1 [Compound XX, (E)-3-(2-(2-(2-Methyl-6-(piperazin-1-yl)pyrimidin-4-ylamino)thiazol-5-yl)vinyl)phenol hydrochloride] | 1.5 | 18 |  |  |
| COc1cccc(/C=C/c2cnc(Nc3cc(N4CCNCC4)nc(C)n3)s2)c1 [Compound XXI, (E)-5-(3-Methoxystyryl)-N-(2-methyl-6-(piperazin-1-yl)pyrimidin-4-yl)thiazol-2-amine hydrochloride] | 224 | 605 |  |  |
| O=C(Nc1ccc(/C=C/c2cnc(Nc3cccc(N4CCNCC4)c3)s2)cc1)c1cccc(C(F)(F)F)c1 [Compound XXIII, N-(4-{2-[2-(3-Piperazin-1-yl-phenylamino)-thiazol-5-yl]-vinyl}-phenyl)-3-trifluoromethyl-benzamide] |  |  | 307 | 7140 |
| Cc1nc(Nc2ncc(/C=C/c3ccc4[nH]ncc4c3)s2)cc(N2CCNCC2)n1 [Compound XXIV, {5-[2-(1H-Indazol-5-yl)-vinyl]-thiazol-2-yl}-(2-methyl-6-piperazin-1-yl-pyrimidin-4-yl)-amine] |  |  | 16 | 350 |

Next, values leading:

| IC50 [1] [nM] | IC50 [2] [nM] | IC50 [1, 3] [nM] | IC50 [2, 4] [nM] | Structure (SMILES) |
| --- | --- | --- | --- | --- |
|  |  | 26 | 66 | Cc1nc(Nc2ncc(/C=C/c3ccc(O)cc3)s2)cc(N2CCN(CCO)CC2)n1 [Compound III, 4-[2-(2-{6-[4-(2-Hydroxy-ethyl)-piperazin-1-yl]-2-methyl-pyrimidin-4-yl-amino}-thiazol-5-yl)-vinyl]-phenol] |
| 15 | 154 |  |  | Oc1cccc(/C=C/c2cnc(Nc3ccc(N4CCNCC4)cc3)s2)c1 [Compound IX, 3-((E)-2-(2-(4-(Piperazin-1-yl)phenylamino)thiazol-5-yl)vinyl)phenol] |
| 174 | 1090 |  |  | OCCN1CCN(c2cccc(Nc3ncc(/C=C/c4ccc5[nH]ccc5c4)s3)c2)CC1 [Compound V, 2-(4-(3-(5-((E)-2-(1H-indol-5-yl)vinyl)thiazol-2-ylamino)phenyl)piperazin-1-yl)ethanol] |
| 14 | 381 |  |  | Oc1cccc(/C=C/c2cnc(Nc3cccc(N4CCNCC4)c3)s2)c1 [Compound X, 3-((E)-2-(2-(3-(Piperazin-1-yl)phenylamino)thiazol-5-yl)vinyl)phenol] |
|  |  | 24 | 51 | Oc1ccc(/C=C/c2cnc(Nc3cccc(N4CCNCC4)c3)s2)cc1 [Compound XIV, 4-{2-[2-(3-Piperazin-1-yl-phenylamino)-thiazol-5-yl]-vinyl}-phenol] |
|  |  | 54 | 343 | Cc1nc(Nc2ncc(/C=C/c3ccc4[nH]ccc4c3)s2)cc(N2CCNCC2)n1 [Compound XV, {5-[2-(1H-Indol-5-yl)-vinyl]-thiazol-2-yl}-(2-methyl-6-piperazin-1-yl-pyrimidin-4-yl)-amine] |
| 161 | 272 |  |  | Oc1ccc(/C=C/c2cnc(Nc3cccc(OCCN4CCCC4)c3)s2)cc1 [Compound XXII, 4-(2-{2-[3-(2-Pyrrolidin-1-yl-ethoxy)-phenylamino]-thiazol-5-yl}-vinyl)-phenol] |
